# In US20120231497A1, “SELECTIVE ENZYMATIC […] C-TERMINAL TERT-BUTYL ESTERS OF PEPTIDES” (N.V. Organon, priority 2006, published 2012):
# Marks after values point to notes of the source that are not given here. Square brackets hold non-standard residues; d marks the D form. * marks the point of attachment. His(Trt) = N[C@@H](Cc1cn(C(c2ccccc2)(c2ccccc2)c2ccccc2)cn1)C(=O)O; Pbf = Cc1c(C)c(S(=O)(=O)*)c(C)c2c1OC(C)(C)C2; code Z = not defined here; Cbz = O=C(OCc1ccccc1)*; Boc = CC(C)(C)OC(=O)*; OtBu = CC(C)(C)O*; tBu = CC(C)(C)*
# Experiments:
# Assay type in all cases: biochemical
# Alcalase CLEA [1] = target: T1, Alcalase CLEA (Bacillus licheniformis, UniProt P00780); experiment: Hydrolysis of tetrapeptide tert-butyl ester by Alcalase CLEA in NMP/buffer (Example 2); details: 0.05 mmol, 5 mg Alcalase CLEA, NMP/phosphate buffer pH 8 1:1, 40° C., 17 h
# T1 construct: purchased CLEA Technologies B. V., Delft, The Netherlands
# T1 sequence (P00780 106-379): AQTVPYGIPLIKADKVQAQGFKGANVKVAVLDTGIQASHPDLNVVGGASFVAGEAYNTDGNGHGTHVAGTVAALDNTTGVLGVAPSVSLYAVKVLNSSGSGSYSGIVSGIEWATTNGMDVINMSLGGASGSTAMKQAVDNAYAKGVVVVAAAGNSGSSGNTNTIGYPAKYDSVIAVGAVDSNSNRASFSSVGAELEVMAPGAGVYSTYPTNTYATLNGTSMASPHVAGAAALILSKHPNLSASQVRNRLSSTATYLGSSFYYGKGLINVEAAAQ
# Method: 0.05 mmol of Boc-Gly-Phe-Phe-Leu-OBu^t was dissolved in a thermostated mixture of 2.5 ml NMP and 2.5 ml phosphate buffer 0.1M pH 8. To this solution 5 mg of Alcalase CLEA were added. The reaction mixture was incubated at 40° C. for a total of 17 hours. Substrate conversion is determined by HPLC. The reaction resulted after 17 h in >95% yield of Boc-Gly-Phe-Phe-Leu-OH.
# Alcalase CLEA [2] = target: T1, Alcalase CLEA; experiment: Identification of peptide substrates susceptible to endopeptidic cleavage (Example 5)
# Method: General procedure Alcalase CLEA:
# 0.1 mmol of each of the tetrapeptides (or tetrapeptide mixtures) were dissolved in 2.5 ml DMF. To this solution 5 mg of enzyme were added along with 2.5 ml phosphate buffer 0.1 M pH 7 and were added to the previous solution. The reaction mixture was incubated at 40° C. Reaction mixtures were analysed after 2 hours and 6 hours by HPLC. In case the reaction had not reached completion additional portions of enzyme [5 mg each] were added at the end of six hours and overnight (approx. 24 hours of reaction). The last aliquot was analysed by LC/MS to verify the presence of the desired compound and of any impurities being Z-Val-Val-X-OH and/or H-X-Leu-OH.
# [3] = target: T2, subtilisin A (S. Carlsberg) (Bacillus licheniformis, UniProt P00780); experiment: Hydrolysis of C-terminal tert-butyl esters by free subtilisin A (Example 1); details: 0.1 mmol peptide, 5 mg enzyme, DMF/phosphate buffer 0.1 M 1:1, 40° C., 2 hours, HPLC
# T2 construct: purchased Sigma Aldrich
# T2 sequence (P00780 106-379): T1 sequence (P00780 106-379)
# Method: (§1) General Procedure Subtilisin A:
# 0.1 mmol of each of the peptides was dissolved in a thermostated mixture of 2.5 ml DMF and 2.5 ml phosphate buffer 0.1 M pH 7.5 mg of enzyme were added to the peptide solution. The reaction mixture was incubated at 40° C. for a total of two hours. The reaction mixtures were analysed after 2 hours using HPLC.
# Alcalase CLEA [4] = target: T1, Alcalase CLEA; experiment: Deprotection of model dipeptides by Alcalase CLEA (Example 3); details: 0.1 mmol, 5 mg enzyme, 50 v/v % DMF/phosphate buffer pH 7, 40° C., 6 hours
# Excerpt: A person skilled in the art can easily identify suitable substrates, for instance by performing a simple test hydrolysis of a selected peptide comprising a C-terminal tert-butyl ester functionality under suitable conditions as described herein before and following conversion e.g. by HPLC techniques. It has been found by hydrolysis of model dipeptides of the general structure Z-Val-X-OBu^t in the presence of Alcalase CLEA and 50% v/v of DMF (see for details Example 3) that the reactivity for these model substrates comprising a C-terminal tert-butyl ester functionality can be divided into four categories:
# General Procedure Alcalase CLEA:
# 0.1 mmol of each of the peptides was dissolved in 2.5 ml DMF. To this solution 5 mg of enzyme were added along with 2.5 ml phosphate buffer 0.1M pH 7. The reaction mixture was incubated at 40° C. for a total of six hours. The reaction mixtures were analysed after 6 hours using HPLC and LC/MS.
# Subtilisin A [5] = target: T3, Subtilisin A (Bacillus licheniformis, UniProt P00780); experiment: Deprotection of model dipeptides by Subtilisin A (Example 3); details: 0.1 mmol, 5 mg enzyme, 50 v/v % DMF/phosphate buffer pH 7, 40° C., 6 hours
# T3 construct: purchased Novozymes
# T3 sequence (P00780 106-379): T1 sequence (P00780 106-379)
# Method: as §1
# 0.1 mmol of each of the peptides was dissolved in 2.5 ml DMF. 5 mg of enzyme were dissolved in 2.5 ml phosphate buffer 0.1 M pH 7 and were added to the peptide solution. The reaction mixture was incubated at 40° C. for a total of six hours. The reaction mixtures were analysed after 6 hours using HPLC and LC/MS.
# Subtilisin A [6] = target: T3, Subtilisin A; experiment: Optimization of the amount of enzyme (Example 4); details: 2 h
# Method: 0.1 mmol of each of the peptides was dissolved in 2.5 ml IDMF. Subtilisin A was dissolved in 2.5 ml phosphate buffer 0.1 M pH 7 and added to the peptide solution. The reaction mixture was incubated at 40° C. The reaction mixtures were sampled at the indicated reaction times and analysed by HPLC. When needed extra portions of enzyme were added at 2-hour intervals.
# Alcalase CLEA [7] = target: T1, Alcalase CLEA; experiment: Scaling up of the procedure (Example 6); details: 1 mmol, 3x25 mg Alcalase CLEA, 50% DMF, pH 7, 40° C., 6 days
# Method: To a stirred solution of 606 mg (1 mmol) Z-Val-Trp-Leu-OBu^t in 25 ml DMF 25 mg of Alcalase CLEA were added along with 25 ml of phosphate buffer 0.1 M pH 7. The mixture was stirred at 40° C. The reaction progress was monitored by HPLC. Extra portions of enzyme (25 mg of Alcalase CLEA each) were added after 24 hours and after 48 hours. After 6 days the reaction was stopped. The reaction mixture was acidified to pH 2 and DMF was evaporated. The product was extracted with ethyl acetate. The organic layer was dried using sodium sulphate, concentrated in vacuo and the final product precipitated from heptane.
# [8] = 48 h, extra 5 mg enzyme portions after 6 h and approx. 24 h
# [9] = 24 h, extra 5 mg enzyme after 6 h
# [10] = 2 h, 5 mg Alcalase CLEA, 50% DMF, pH 7, 40° C.
substance,measurement,setting,value
Boc-Gly-Phe-Phe-Leu-OBu^t (Boc-GFFL-OtBu; SMILES CC(C)C[C@H](NC(=O)[C@H](Cc1ccccc1)NC(=O)[C@H](Cc1ccccc1)NC(=O)CNC(=O)OC(C)(C)C)C(=O)OC(C)(C)C),yield of Boc-Gly-Phe-Phe-Leu-OH (substrate conversion by HPLC),Alcalase CLEA [1],> 95%
Cbz-VVE(OtBu)L-OtBu,Ratio Desired Product vs. Substrate (% area),Alcalase CLEA [2]; [8],100/0
Cbz-VVK(Boc)L-OtBu,Ratio Desired Product vs. Substrate (% area),Alcalase CLEA [2]; [8],100/0
Cbz-VVR(Pbf)L-OtBu,"Ratio endopeptidase Impurity vs. Desired Product (% area), impurity H-X-Leu-OH",Alcalase CLEA [2]; 24 h,1/99 (H-X-Leu-OH)
same,Ratio Desired Product vs. Substrate (% area),Alcalase CLEA [2]; [8],100/0
Cbz-VVRL-OtBu,Ratio Desired Product vs. Substrate (% area),Alcalase CLEA [2]; 6 h,100/0 ^1)
Cbz-VVVL-OtBu,Ratio Desired Product vs. Substrate (% area),Alcalase CLEA [2]; 6 h,100/0 ^1)
same,Ratio Desired Product vs. Substrate (% area),Alcalase CLEA [2]; [9],100/0 ^1)
same,Ratio Desired Product vs. Substrate (% area),Alcalase CLEA [2]; [8],100/0
Cbz-VVW(Boc)L-OtBu,Ratio Desired Product vs. Substrate (% area),Alcalase CLEA [2]; [10],3/97
same,Ratio Desired Product vs. Substrate (% area),Alcalase CLEA [2]; [8],100/0
Cbz-Val-Ala-OtBu,Product/Substrate (% area),[3],100/0
same,"Product vs. Substrate (% area), Alcalase CLEA",Alcalase CLEA [4],100/0
same,"Product vs. Substrate (% area), Subtilisin A",Subtilisin A [5],100/0
Cbz-Val-Asn-OtBu,"Product vs. Substrate (% area), Alcalase CLEA",Alcalase CLEA [4],100/0
Cbz-Val-Gln-OtBu,"Product vs. Substrate (% area), Alcalase CLEA",Alcalase CLEA [4],100/0
same,"Product vs. Substrate (% area), Subtilisin A",Subtilisin A [5],100/0
Cbz-Val-Ile-OtBu,"Product vs. Substrate (% area), Alcalase CLEA",Alcalase CLEA [4],traces of product
same,"Product vs. Substrate (% area), Subtilisin A",Subtilisin A [5],0/100
Cbz-Val-Leu-OtBu,Product vs. Substrate (% area),Subtilisin A [6]; 2.5 mg enzyme,100/0
same,Product vs. Substrate (% area),Subtilisin A [6]; 5 mg enzyme,100/0
same,"Product vs. Substrate (% area), Alcalase CLEA",Alcalase CLEA [4],98/2
same,"Product vs. Substrate (% area), Subtilisin A",Subtilisin A [5],100/0
Cbz-Val-Met-OtBu,"Product vs. Substrate (% area), Subtilisin A",Subtilisin A [5],100/0
Cbz-Val-Pro-OtBu,"Product vs. Substrate (% area), Alcalase CLEA",Alcalase CLEA [4],0/100
same,"Product vs. Substrate (% area), Subtilisin A",Subtilisin A [5],0/100
Cbz-Val-Ser-OtBu,"Product vs. Substrate (% area), Subtilisin A",Subtilisin A [5],100/0
Cbz-Val-Thr(tBu)-OtBu,"Product vs. Substrate (% area), Alcalase CLEA",Alcalase CLEA [4],0/100
same,"Product vs. Substrate (% area), Subtilisin A",Subtilisin A [5],0/100
Cbz-Val-Trp-Leu-OtBu,endopeptidase-related impurities in the final compound (HPLC and LC/MS),Alcalase CLEA [7],No endopeptidase-related impurities were identified
Cbz-Val-[His(Trt)]-OtBu,"Product vs. Substrate (% area), Alcalase CLEA",Alcalase CLEA [4],0/100
same,"Product vs. Substrate (% area), Subtilisin A",Subtilisin A [5],0/100
"Z-Val-Val-Ala-Leu-OBu^t ({code Z}-VVAL-OtBu; reading uncertain; also: printed as Z-Val-Val-Ala-Leu-OBu^t) [model tetrapeptide Z-Val-Val-X-Leu-OBu^t, X=Ala, tested in mix A]",Ratio Desired Product vs. Substrate (% area),Alcalase CLEA [2]; 6 h,100/0 ^1)
"Z-Val-Val-Asn-Leu-OBu^t ({code Z}-VVNL-OtBu; reading uncertain; also: printed as Z-Val-Val-Asn-Leu-OBu^t) [model tetrapeptide Z-Val-Val-X-Leu-OBu^t, X=Asn, tested in mix B]",Ratio Desired Product vs. Substrate (% area),Alcalase CLEA [2]; [10],100/0
same,Ratio Desired Product vs. Substrate (% area),Alcalase CLEA [2]; 6 h,100/0
same,Ratio Desired Product vs. Substrate (% area),Alcalase CLEA [2]; [9],100/0
same,Ratio Desired Product vs. Substrate (% area),Alcalase CLEA [2]; [8],100/0
"Z-Val-Val-Gln-Leu-OBu^t ({code Z}-VVQL-OtBu; reading uncertain; also: printed as Z-Val-Val-Gln-Leu-OBu^t) [model tetrapeptide Z-Val-Val-X-Leu-OBu^t, X=Gln, tested in mix A]",Ratio Desired Product vs. Substrate (% area),Alcalase CLEA [2]; 6 h,100/0 ^1)
"Z-Val-Val-Leu-Leu-OBu^t ({code Z}-VVLL-OtBu; reading uncertain; also: printed as Z-Val-Val-Leu-Leu-OBu^t) [model tetrapeptide Z-Val-Val-X-Leu-OBu^t, X=Leu, tested in mix A]",Ratio Desired Product vs. Substrate (% area),Alcalase CLEA [2]; 6 h,100/0 ^1)
Z-Val-Val-Met-Leu-OBu^t ({code Z}-VVML-OtBu; reading uncertain; also: printed as Z-Val-Val-Met-Leu-OBu^t),"Ratio endopeptidase Impurity vs. Desired Product (% area), impurity Z-Val-Val-X-OH",Alcalase CLEA [2]; 24 h,72/28 (Z-Val-Val-X-OH)
same,Ratio Desired Product vs. Substrate (% area),Alcalase CLEA [2]; [9],100/0
"Z-Val-Val-Phe-Leu-OBu^t ({code Z}-VVFL-OtBu; reading uncertain; also: printed as Z-Val-Val-Phe-Leu-OBu^t) [model tetrapeptide Z-Val-Val-X-Leu-OBu^t, X=Phe, tested in mix B]",Ratio Desired Product vs. Substrate (% area),Alcalase CLEA [2]; [10],23/77
same,Ratio Desired Product vs. Substrate (% area),Alcalase CLEA [2]; 6 h,81/19
same,Ratio Desired Product vs. Substrate (% area),Alcalase CLEA [2]; [8],100/0
"Z-Val-Val-Ser-Leu-OBu^t ({code Z}-VVSL-OtBu; reading uncertain; also: printed as Z-Val-Val-Ser-Leu-OBu^t) [model tetrapeptide Z-Val-Val-X-Leu-OBu^t, X=Ser, tested in mix A]",Ratio Desired Product vs. Substrate (% area),Alcalase CLEA [2]; 6 h,100/0 ^1)
"Z-Val-Val-Trp-Leu-OBu^t ({code Z}-VVWL-OtBu; reading uncertain; also: printed as Z-Val-Val-Trp-Leu-OBu^t) [model tetrapeptide Z-Val-Val-X-Leu-OBu^t, X=Trp, tested in mix D]","Ratio endopeptidase Impurity vs. Desired Product (% area), impurity H-X-Leu-OH",Alcalase CLEA [2]; 24 h,2/98 (H-X-Leu-OH)
same,"Ratio endopeptidase Impurity vs. Desired Product (% area), impurity H-X-Leu-OH",Alcalase CLEA [2]; 48 h,6/94 (H-X-Leu-OH)
"Z-Val-Val-Tyr-Leu-OBu^t ({code Z}-VVYL-OtBu; reading uncertain; also: printed as Z-Val-Val-Tyr-Leu-OBu^t) [model tetrapeptide Z-Val-Val-X-Leu-OBu^t, X=Tyr, tested in mix B]",Ratio Desired Product vs. Substrate (% area),Alcalase CLEA [2]; [8],100/0
